Measurements as given in PMC8222713, “Variation of Two S3b Residues in KV4.1–4.3 Channels Underlies Their Different Modulations by Spider Toxin κ-LhTx-1” (Frontiers in Pharmacology, 2021).
Where a SMILES comes first, the peptide text is derived from it. Bridges are numbered along the chain shown (N, C = ends).

What was measured:
KV3.3 channel (hKV3.3) = experiment: Whole-cell patch clamp selectivity, KV3.3; type: cell-based, human; settings: KV3.3, 10 µM, n = 5
Procedure: (§1) The cDNA of hKV1.1, hKV1.3, rKV1.4, hKV1.5, rKV2.1, hKV3.1–3.4, mKV4.1, rKV4.2, and rKV4.3 were subcloned in the eukaryotic expression vector pCDNA3.1 or pCMV-blank. Channel mutants were made by a site-directed mutation method. Briefly, a pair of oppositely directed primers with 15 bp overlap at their 5′ ends and the designed mutation site were used to amplify the parental channel plasmid, then the PCR mix was treated with DpnI to remove the template. 10 μL digestion mix was directly used to transform 100 μL DH5α chemical competent cells. The correct mutation made by this procedure was finally confirmed by DNA sequencing. […] 4–6 h after transfection, cells were seeded onto poly-lysine (PLL) coated coverslips, and 24–36 h later, transfected cells were ready for patch-clamp analysis. […]
(§2) Whole-cell patch clamp recording was performed in an electrophysiology platform equipped with MultiClamp 700B amplifier and Axon Digidata 1550 AD/DA convertor (Axon Instruments, Irvine, CA, United States). […] The whole cell conductance (G) at each depolarizing voltage (V) was determined using the equation: G = I/(V−Vrev), where I and Vrev represents the current amplitude and the reversal potential, respectively. In the present study, Vrev for K^+ current is determined to be −85.61 mV using the Nernst equation. […] Gating currents of KV4.1–4.3 channels were measured as previously reported ([Tilley et al., 2019]). […]

[1] = test system: KV4.3-TN/PK (KV4.3/277PK, T277P/N278K double mutant); experiment: Whole-cell patch clamp, KV4.3-TN/PK (KV4.3/277PK) in CHO-K1 cells; type: cell-based, rat
Procedure: (§3) The cDNA of hKV1.1, hKV1.3, rKV1.4, hKV1.5, rKV2.1, hKV3.1–3.4, mKV4.1, rKV4.2, and rKV4.3 were subcloned in the eukaryotic expression vector pCDNA3.1 or pCMV-blank. Channel mutants were made by a site-directed mutation method. Briefly, a pair of oppositely directed primers with 15 bp overlap at their 5′ ends and the designed mutation site were used to amplify the parental channel plasmid, then the PCR mix was treated with DpnI to remove the template. 10 μL digestion mix was directly used to transform 100 μL DH5α chemical competent cells. The correct mutation made by this procedure was finally confirmed by DNA sequencing. CHO-K1 cells (ATCC® CCL-61™) were grown in DMEM-F12 mixed medium (1:1) supplemented with 10% FBS and maintained in standard conditions (saturated humidity, 37°C, 5% CO2). Channel plasmid was co-transfected with pEGFP-N1 (encodes the green fluoresence protein) into CHO-K1 cells using lipofectamine 2000 following the manufacturer’s instructions. 4–6 h after transfection, cells were seeded onto poly-lysine (PLL) coated coverslips, and 24–36 h later, transfected cells were ready for patch-clamp analysis. It should be note that KV4.2 and its mutants were also co-expressed with hKChIP1 to promote their functional expressions.
(§4) Whole-cell patch clamp recording was performed in an electrophysiology platform equipped with MultiClamp 700B amplifier and Axon Digidata 1550 AD/DA convertor (Axon Instruments, Irvine, CA, United States). Data were acquired using the pClamp software (Axon Instruments, Irvine, CA, United States). All experiments were performed at room temperature. The bath solution contains (in mM): 140 NaCl, 5 KCl, 1 MgCl2, 2 CaCl2, 10 glucose, and 10 HEPES (pH = 7.3). The pipette solution contains (in mM): 140 KCl, 2.5 MgCl2, 11 EGTA, and 10 HEPES (pH = 7.3). Series resistance was kept below 10 MΩ and compensated to 80%. The concentration–response curves were fitted by a Hill logistic equation to estimate the potency (IC50) of the toxin. The whole cell conductance (G) at each depolarizing voltage (V) was determined using the equation: G = I/(V−Vrev), where I and Vrev represents the current amplitude and the reversal potential, respectively. In the present study, Vrev for K^+ current is determined to be −85.61 mV using the Nernst equation. G-V curve was obtained by plotting the normalized G as a function of V and fitted by the Boltzmann equation: y = 1/{1 + exp [(Va−V)/K]}, in which Va, V, and K represents half-maximum activation voltage, test voltage and slope factor, respectively. The steady-state fast inactivation of KV4 channels was measured using a classical two-pulses protocol: cell was held at −120 mV, and a train of conditional voltages (−120–40 mV, in 10 mV increment, 1,000 ms) were applied to induce channel inactivation, followed by a +60 mV test pulse (300 ms) to assess the proportion of non-inactivated channels; the sweep interval was set to 10 s. Currents at the test pulse (I) were normalized to the maximum value (Imax) and plotted as a function of the conditional voltage (V), the curve was fitted by the Boltzmann equation: I/Imax = A + (1−A)/{1 + exp [(V−Vh)/K]}, where Vh is the half-maximum inactivation voltage, A represents the minimum channel availability, and K is the slope factor. Gating currents of KV4.1–4.3 channels were measured as previously reported ([Tilley et al., 2019]). Briefly, the ionic pore currents were abolished by replacing K^+ with NMDG^+ in the pipette solution, and 10 µM Cs^+ was present in the bath solution to occupy the selectivity filter of KV channels to prevent decay of the gating currents during recording.
(§5) Data were presented as MEAN ± SEM, n represents the number of separate experimental cells. Data were analyzed using the software Clampfit 10.5 (Axon Instruments, Irvine, CA, United States), Graphpad Prism 5.01 (GraphPad Software, La Jolla, CA, United States) and Excel 2010 (Microsoft Corporation, Redmond, WA, United States). […]

KV4.1 channel (mKV4.1) = biological target: T1, KV4.1 channel (mKV4.1) (Mus musculus, UniProt Q03719); experiment: Whole-cell patch clamp, KV4.1 in CHO-K1 cells; type: cell-based
T1 construct: expressed in transfected cells; host or cells: CHO-K1 (transient, co-transfected with pEGFP-N1)
T1 sequence (Q03719 1-651): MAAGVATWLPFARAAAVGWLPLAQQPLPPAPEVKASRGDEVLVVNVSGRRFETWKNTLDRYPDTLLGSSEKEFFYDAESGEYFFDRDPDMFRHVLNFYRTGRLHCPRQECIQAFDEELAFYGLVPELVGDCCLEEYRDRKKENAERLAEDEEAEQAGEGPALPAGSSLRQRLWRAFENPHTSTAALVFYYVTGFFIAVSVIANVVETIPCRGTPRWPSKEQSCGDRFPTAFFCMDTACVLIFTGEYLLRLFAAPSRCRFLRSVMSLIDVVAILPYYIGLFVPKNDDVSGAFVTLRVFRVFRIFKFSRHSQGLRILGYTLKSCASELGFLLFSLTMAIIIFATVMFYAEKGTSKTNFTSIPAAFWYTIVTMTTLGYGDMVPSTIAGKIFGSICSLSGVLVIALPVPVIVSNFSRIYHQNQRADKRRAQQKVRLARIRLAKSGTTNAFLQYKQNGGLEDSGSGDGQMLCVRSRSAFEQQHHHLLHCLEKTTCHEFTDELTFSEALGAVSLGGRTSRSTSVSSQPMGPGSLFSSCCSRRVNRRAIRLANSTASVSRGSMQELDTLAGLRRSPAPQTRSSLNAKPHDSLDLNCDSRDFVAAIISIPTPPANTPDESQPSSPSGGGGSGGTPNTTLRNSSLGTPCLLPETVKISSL
Procedure: as §3, §4, §5

KV3.2 channel (hKV3.2) = experiment: Whole-cell patch clamp selectivity, KV3.2; type: cell-based, human; settings: KV3.2, 10 µM, n = 5
Procedure: as §1, §2

[2] = 10 μM κ-LhTx-1, KV4.3-TN/PK, G-V, mean ± SEM, n = 5
[3] = 10 μM κ-LhTx-1, KV4.3-TN/PK, two-pulse protocol, mean ± SEM, n = 5
[4] = 10 μM κ-LhTx-1, KV4.1, two-pulse protocol, mean ± SEM, n = 5

`CC[C@H](C)[C@@H]1NC(=O)[C@H](CCC(N)=O)NC(=O)[C@@H]2CSSC[C@@H]3NC(=O)[C@H](CC(C)C)NC(=O)[C@H](CC(N)=O)NC(=O)[C@H](CCSC)NC(=O)[C@H](Cc4c[nH]c5ccccc45)NC(=O)[C@H](CO)NC(=O)[C@H](C)NC(=O)[C@@H](NC(=O)[C@H](CCC(=O)O)NC(=O)[C@H](CCC(N)=O)NC(=O)[C@H](C)NC(=O)[C@H](CC(=O)O)NC(=O)[C@@H](N)CCC(=O)O)CSSC[C@H](NC(=O)[C@H](CSSC[C@@H](C(=O)N[C@@H](CCCCN)C(=O)N[C@@H](Cc4ccc(O)cc4)C(=O)N[C@@H](CCCCN)C(=O)N[C@@H](CC(C)C)C(N)=O)NC(=O)[C@H](Cc4c[nH]c5ccccc45)NC1=O)NC(=O)[C@H](CCCCN)NC(=O)[C@H](CCCCN)NC(=O)[C@H](CCC(=O)O)NC(=O)CNC3=O)C(=O)N[C@@H](CCC(=O)O)C(=O)NCC(=O)N[C@@H](Cc1ccc(O)cc1)C(=O)N[C@@H](C(C)C)C(=O)N2` [κ-LhTx-1] (H-EDAQECASWMNLCGEKKCCEGYVCQIWCKYKL-NH2; disulfide 6-19, 13-24, 18-28 (inferred); N-terminus and C-terminus assumed) was tested, and the effect on currents (KV3.3 channel (hKV3.3)) was “did not remarkably affect the currents”, the “Va (steady-state activation)” value [1, 2] was 81.96 ± 2.27 mV and the “k, slope factor (steady-state activation)” value [1, 2] was 15.09 ± 1.14 mV. For the same compound, the “Vh (steady-state inactivation)” value [1, 3] was -25.43 ± 2.92 mV, the “k, slope factor (steady-state inactivation)” value [1, 3] was 15.31 ± 2.02 mV and the “∆Va and inhi%(min) vs KV4.1” value ([1]; KV4.3/277PK, 10 μM) was “not significantly different from those in KV4.1”. For the same compound, the “∆Va (steady-state activation)” value ([1]; Va shift by 10 μM κ-LhTx-1 vs control, KV4.3-TN/PK, mean ± SEM) was 87.43 ± 2.99 mV, the “∆Vh (steady-state inactivation)” value ([1]; Vh shift by 10 μM κ-LhTx-1 vs control, KV4.3-TN/PK, mean ± SEM) was 26.29 ± 3.52 mV and the “Va (steady-state activation)” value (KV4.1 channel (mKV4.1); 10 μM κ-LhTx-1, KV4.1, Boltzmann fit of G-V curve, mean ± SEM, n = 5) was 95.20 ± 1.68 mV. For the same compound, the “k, slope factor (steady-state activation)” value (KV4.1 channel (mKV4.1); 10 μM κ-LhTx-1, KV4.1, G-V, mean ± SEM, n = 5) was 16.14 ± 1.78 mV, the “Vh (steady-state inactivation)” value (KV4.1 channel (mKV4.1); [4]) was -32.48 ± 3.44 mV and the “k, slope factor (steady-state inactivation)” value (KV4.1 channel (mKV4.1); [4]) was 22.88 ± 0.19 mV. For the same compound, the reversibility of inhibition (KV4.1 channel (mKV4.1); KV4.1) was “in a reversible manner”, the voltage-dependence of inhibition (KV4.1 channel (mKV4.1); KV4.1, 10 µM, inhibition ratio at each depolarizing voltage, n = 5–8) was “affected by voltage to a much less extent” and the “I-V: current inhibition below +60 mV” value (KV4.1 channel (mKV4.1); KV4.1, 10 µM, n = 5–8) was “fully inhibited the currents at voltages below +60 mV”. For the same compound, the “I-V: reopening of toxin-bound channels” value (KV4.1 channel (mKV4.1); KV4.1, 10 µM, strong depolarization, n = 5–8) was “only depolarizations stronger than +70 mV could partially reopen the toxin-bound channels”, the maximum inhibition (KV4.1 channel (mKV4.1); KV4.1, saturating dose 10 μM, +30 mV) was “fully inhibit” and the “current inhibition at Va” value (KV4.1 channel (mKV4.1); KV4.1 at Va depolarizing voltage) was “almost fully inhibited”. For the same compound, the “∆Va (steady-state activation)” value (KV4.1 channel (mKV4.1); Va shift by 10 μM κ-LhTx-1 vs control, KV4.1, mean ± SEM) was 98.28 ± 2.66 mV, the “∆Vh (steady-state inactivation)” value (KV4.1 channel (mKV4.1); Vh shift by 10 μM κ-LhTx-1 vs control, KV4.1, mean ± SEM) was 29.27 ± 2.05 mV and the effect on currents (KV3.2 channel (hKV3.2)) was “did not remarkably affect the currents”.
